Data from ChEMBL document CHEMBL4321784, “Inhibiting Hedgehog: An Update on Pharmacological Compounds and Targeting Strategies” (J Med Chem, 2019).
Blank lines part the entries; values can stand above or below the compound they belong to.

What was measured:
Format in all cases: cell-based
[1] = target: Sonic hedgehog protein (Mus musculus, UniProt Q62226); experiment: Inhibition of sonic hedgehog signaling in mouse Shh Light2 cells after […] by Bright-Glo luciferase assay
[2] = target: T1, Protein-cysteine N-palmitoyltransferase HHAT (Homo sapiens, UniProt Q5VTY9); experiment: Inhibition of HA/FLAG/His-tagged HHAT (unknown origin) expressed in 293FT cells assessed as enzyme-mediated sonic hedgehog palmitoylation incubated for 20 mins followed by [125I]iodo-palmitoyl CoA and Shh biotinylated peptide and measured after 1 hr by Scintillation proximity assay
[3] = target: T1, Protein-cysteine N-palmitoyltransferase HHAT; experiment: Inhibition of 3C-FLAG/His8-tagged human HHAT expressed in HEK293 cells assessed as reduction in enzyme-mediated sonic hedgehog (1 to 11 residues) palmitoylation by click-ELISA method
[4] = Inhibition of mouse Smo A1 mutant expressed in mouse Shh Light2 cells assessed as reduction in hedgehog pathway activation incubated for 30 hrs by luminescence assay
[5] = target: Zinc finger protein GLI1/GLI2 (Mus musculus, UniProt P47806+Q0VGT2); experiment: Inhibition of GLI1/GLI2 in mouse Shh Light2 cells assessed as reduction in endogenous hedgehog signalling in presence of Smo agonist SAG by luciferase reporter gene assay

T1 sequence (Q5VTY9 whole entry, the tested form may be a part): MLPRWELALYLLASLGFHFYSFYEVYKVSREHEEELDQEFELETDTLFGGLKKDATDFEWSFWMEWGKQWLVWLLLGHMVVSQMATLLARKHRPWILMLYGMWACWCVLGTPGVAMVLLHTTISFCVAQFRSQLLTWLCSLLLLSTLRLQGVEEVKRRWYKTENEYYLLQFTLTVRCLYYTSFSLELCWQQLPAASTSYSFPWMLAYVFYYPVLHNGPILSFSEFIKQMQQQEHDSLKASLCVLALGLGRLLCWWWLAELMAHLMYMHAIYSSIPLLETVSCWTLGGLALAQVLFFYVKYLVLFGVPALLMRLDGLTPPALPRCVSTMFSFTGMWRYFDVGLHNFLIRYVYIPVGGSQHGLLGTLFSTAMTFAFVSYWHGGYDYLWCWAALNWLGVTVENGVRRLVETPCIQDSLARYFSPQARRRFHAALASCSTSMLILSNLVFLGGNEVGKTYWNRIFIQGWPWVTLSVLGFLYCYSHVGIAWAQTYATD
Sonic hedgehog protein, sequence (Q62226 25-198 limits assumed): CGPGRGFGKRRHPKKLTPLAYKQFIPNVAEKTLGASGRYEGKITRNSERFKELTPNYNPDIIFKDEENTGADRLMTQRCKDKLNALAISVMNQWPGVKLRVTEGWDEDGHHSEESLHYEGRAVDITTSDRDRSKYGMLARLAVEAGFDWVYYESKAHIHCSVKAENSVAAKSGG

Compound: O=C(C[C@@H]1C/C=C/CCC(=O)O[C@H](c2ccccc2)CNC1=O)NCc1ccc(Cl)cc1 [ROBOTNIKININ]
IC50 [1]: 4 µM

Compound: CCC(C)CNCC(=O)N1CCc2sccc2C1c1cccc(C)n1 (stereo unspecified)
IC50 [3]: 200 nM

Compound: CCC(C)n1ncn(-c2ccc(N3CCN(c4ccc(OCC5COC(Cn6cncn6)(c6ccc(Cl)cc6Cl)O5)cc4)CC3)cc2)c1=O (stereo unspecified) [ITRACONAZOLE]
IC50 [4]: 800 nM

Compound: c1cc(-c2sc(-c3ccncc3)c(-c3ccncc3)c2-c2ccncc2)ccn1
IC50 [5]: 5 µM

Next, values leading:

IC50 [2]: 850 nM
Compound: CCC(C)CNCC(=O)N1CCc2sccc2C1COc1cccc(C)c1 (stereo unspecified)

IC50 [5]: 5 µM
Compound: CN(C)c1ccccc1CN1CCCN(Cc2ccccc2N(C)C)C1c1ccncc1
